Assay results as given in patent publication US20240166681A1, “3'3' CYCLIC DINUCLEOTIDES CONTAINING ISONUCLEOTIDIC UNITS” (INSTITUTE OF ORGANIC CHEMISTRY AND BIOCHEMISTRY AS CR, V. …, priority 2021, published 2024).
pEC50: −log10 of the molar value.

What was measured:
[1] = biological target: T1, AQ STING (G230A-R293Q) (Homo sapiens, UniProt Q86WV6, G230A/H232R/R293Q); experiment: Differential scanning fluorimetry with AQ STING; assay type: binding; details: thermal shift, truncated human AQ STING 0.1 mg/ml, 150 μM CDN; for ΔTm at 150 µM: read-out: DSF ΔTm AQ STING
T1 construct: truncated human WT STING or AQ STING (amino acid residues 140-343); 8xHis (N, cleaved yes); SUMO (N, cleaved yes); made in house; host or cells: E. coli Rosetta-gami B (DE3)
Source text: Both WT and AQ human STING (G230A-R293Q) cDNA were amplified by the use of PCR (Phusion® High-Fidelity DNA Polymerase, cat. #M0530S, NEB, Ipswich, USA) using oligonucleotides hSTING140-BamH-For ([…]) (SEQ ID NO:5) and hSTING379-Not-Rev3 ([…]) (SEQ ID NO:6) from pUNO1-hSTING-WT (cat. #puno1-hstingwt, InvivoGen, San Diego, USA) and pUNO1-hSTING-HAQ plasmids (punol-hsting-haq, InvivoGen, San Diego, USA). Purified PCR products were cleaved with restriction enzymes BamHI (cat. #R0136S, NEB, Ipswich, USA) and Notl (cat. #R0189S, NEB, Ipswich, USA) and cloned into the pSUMO vector linearized with the identical enzymes. Plasmid pSUMO was created by introducing 8-His-SUMO sequence between Ndel and BamHI sites of pHis-parallel2 plasmid (Clontech, Moutain View, USA). pSUMO-STING WT or pSUMO-STING AQ plasmids thus encoded truncated human WT STING or AQ STING (amino acid residues 140-343) with N-terminal 8xHis and SUMO tag.
The recombinant WT STING and AQ STING proteins were overexpressed in Rosetta-gami B (DE3) competent cells (cat. #71136-3, Merck Millipore, Billerica, USA). Bacterial pellets were re-suspended in ice-cold lysis buffer containing 50 mmol·l^−1 TrisCl (cat. #T1503, Sigma Aldrich, Czech Republic) pH 8.0, 300 mmol·l^−1 NaCl, 3 mmol·l^−1 β-mercaptoethanol (cat. #M6250, Sigma Aldrich, Czech Republic), 10% glycerol (cat. #G5516, Sigma Aldrich, Czech Republic) and 20 mmol·l^−1 imidazole (cat. #15513, Sigma Aldrich, Czech Republic) using Dounce homogenizer. DNase I (cat. #D5025, Sigma Aldrich, Czech Republic) and RNase A (cat. #R6513, Sigma Aldrich, Czech Republic) were added (final concentration 50 μg/ml) together with MgCl2 (final concentration 5 mmol·l^−1) to the homogenate and bacteria were lysed using French Press G-M™ High-Pressure Cell Press Homogenizer (1500 psi, 3 cycles). Lysate was spun 30,000 g for 20 minutes and supernatant was gently stirred with Ni-NTA resin (cat. #745400.25 Macherey-Nagel, Duren, Germany) for 30 minutes. The resin was poured into a chromatography column, washed with 50 ml buffer A (50 mmol·l^−1 TrisCl (pH 8.0), 800 mmol·l^−1 NaCl, 3 mmol·l^−1 (3-mercaptol; 10% glycerol; 20 mmol·l^−1 imidazole) and 8-His-SUMO tagged STING proteins were eluted with 15 ml buffer A containing 300 mmol·l^−1 imidazole. The eluted proteins were cleaved with recombinant SUMO protease (80 μg/ml of protein solution, cat. #12588018, ThermoFisher, Waltham, USA). The proteins were further purified by size exclusion chromatography using HiLoad 16/60 Superdex 75 (cat. #28989333, GE Healthcare Bio-Sciences, Pittsburgh, USA) in 50 mmol·l^−1 Tris Cl buffer pH 7.4 containing 150 mmol·l^−1 NaCl, and 10% glycerol. Proteins were concentrated with Amicon® Ultra-15 10 K device (cat. #UFC901008, Merck Millipore, Billerica, USA) and flash frozen in liquid N2.
WT and AQ allelic forms of STING protein were diluted to the final concentration 0.1 mg/ml in 100 mmol·l^−1 TrisCl buffer pH 7.4 containing, 150 mmol·l^−1 NaCl, 1:500 SYPRO Orange (cat. #S6650, ThermoFisher, Waltham, USA) and 150 μM CDN or water. 20 μL solutions of the reaction mixtures were pipetted in triplicates into 96 well optical reaction plates and thermal denaturation of samples were performed on real time PCR cycler (LightCycler® 480 Instrument II—Roche, Basel, Switzerland). The first derivative of the thermal denaturation curves was performed to calculate denaturing temperatures of STING—CDN complexes and STING apoproteins. The thermal shift for each CDN was calculated by subtracting the average denaturing temperature of STING apoprotein from the average denaturing temperature of STING CDN complex.

[2] = biological target: WT STING (Homo sapiens, UniProt Q86WV6, H232R); experiment: 293T WT STING standard reporter assay; assay type: cell-based; parameters: host or cells: 293T (ATCC CRL-3216), stably transfected; details: 293T wtSTING-FL cells, no digitonin, 7 h incubation, luciferase reporter
Description: After 5 minutes incubation at room temperature (RT), 250 μL of the mixture was added dropwise to the cells in one well. Cells were incubated 36 hours at 37° C. with 5% CO2, and then detached with 0.05% Trypsin and 0.22 g/L EDTA (both cat. #L0941, Biowest, Riverside, USA).
Transfected cells were seeded onto poly-D-lysine coated six well plates at density 50,000 cells per 1 cm^2 in DMEM medium with high glucose containing 10% heat inactivated FBS, 30 μg/mL blasticidin (cat. #ant-b1-05, InvivoGen, San Diego, USA), 0.06 mg/ml Penicillin G and 0.1 mg/ml Streptomycin Sulfate (both cat. #. L0018, Biowest, Riverside, USA). The medium was replenished every 3-4 days until visible colonies of cells resistant to blasticidin were formed.
Blasticidin resistant cells stably expressing WT STING were further transfected with […] plasmid following the same procedure as described above. […] Homogeneous culture of stably double transfected cells was prepared by limiting dilution of cells in 96 well plates and wells with cells were selected that originated from a single cell.
The medium was removed next day and three-fold serial dilutions of compounds in 100 μl medium were added to the cells. The plates with cells were incubated for 7 hours at 37° C. with 5% CO2. After 50 μl of the medium was removed, 30 μl of ONE-Glo™ Luciferase Assay System reagent (cat. #E6120, Promega, Madison, USA) was added to each well and luminescence was read on Synergy H1 (Biotek, Winooski, USA). […] (cat. #tlrl-nacga23), and 2′2′-cGAMP (cat. #tlrl-nacga22) were purchased from Invivogen (San Diego, USA).

T1 sequence (Q86WV6 140-343 G230A/H232R/R293Q): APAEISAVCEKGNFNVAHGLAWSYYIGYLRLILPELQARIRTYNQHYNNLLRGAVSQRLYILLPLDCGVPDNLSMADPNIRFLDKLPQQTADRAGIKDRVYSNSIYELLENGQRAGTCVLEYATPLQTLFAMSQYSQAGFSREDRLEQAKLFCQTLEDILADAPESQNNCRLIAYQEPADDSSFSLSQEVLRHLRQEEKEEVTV
Sequence of WT STING (Q86WV6 whole entry H232R): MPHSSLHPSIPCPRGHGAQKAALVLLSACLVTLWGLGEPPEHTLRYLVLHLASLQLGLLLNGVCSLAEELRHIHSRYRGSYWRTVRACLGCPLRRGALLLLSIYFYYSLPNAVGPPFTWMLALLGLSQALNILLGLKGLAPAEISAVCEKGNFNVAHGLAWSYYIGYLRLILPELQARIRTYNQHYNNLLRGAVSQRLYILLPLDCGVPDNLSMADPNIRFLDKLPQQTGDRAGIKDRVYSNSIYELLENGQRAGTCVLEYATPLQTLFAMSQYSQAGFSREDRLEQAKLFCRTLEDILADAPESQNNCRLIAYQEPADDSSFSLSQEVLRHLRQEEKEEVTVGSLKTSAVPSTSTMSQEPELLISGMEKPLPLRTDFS

Structure (SMILES) | ΔTm at 150 µM [1] | pEC50 [2] | DSF ΔTm AQ STING [1]
Nc1nc2c(ncn2[C@@H]2O[C@@H]3COP(=O)(O)O[C@H]4[C@H](n5cnc6c(N)ncnc65)CO[C@@H]4COP(=O)(O)O[C@H]3[C@H]2F)c(=O)[nH]1 [Compound 24, (1S,6R,8R,9R,10R,15R,18R)-8-(2-amino-6-oxo-6,9-dihydro-1H-purin-9-yl)-18-(6-amino-9H-purin-9-yl)-9-fluoro-3,12-dihydroxy-2,4,7,11,13,16-hexaoxa-3λ^5,12λ^5-diphosphatricyclo[13.3.0.0^6,10]octadecane-3,12-dione] | 16.9 °C | – | –
Nc1ncnc2c1ncn2[C@@H]1CO[C@@H]2COP(=O)(O)O[C@H]3[C@@H](F)[C@H](n4cnc5c(N)ncnc54)O[C@@H]3COP(=O)(O)O[C@@H]12 [Compound 28, (1S,6R,8R,9R,10R,15R,18R)-8,18-bis(6-amino-9H-purin-9-yl)-9-fluoro-3,12-dihydroxy-2,4,7,11,13,16-hexaoxa-3λ^5,12λ^5-diphosphatricyclo[13.3.0.0^6,10]octadecane-3,12-dione] | 13.3 °C | – | –
Nc1ncnc2c1ncn2[C@@H]1CC[C@@H]2COP(=O)(O)O[C@H]3[C@@H](F)[C@H](n4cnc5c(N)ncnc54)O[C@@H]3COP(=O)(O)O[C@H]21 [Compound 34, (1R,6R,8R,9R,10R,15R,18R)-8,18-bis(6-amino-9H-purin-9-yl)-9-fluoro-3,12-dihydroxy-2,4,7,11,13-pentaoxa-3λ^5,12λ^5-diphosphatricyclo[13.3.0.0^6,10]octadecane-3,12-dione] | 9.2 °C | – | –
Nc1ncnc2c1ncn2[C@@H]1CO[C@@H]2COP(=O)(O)O[C@H]3C[C@H](n4cnc5c(N)ncnc54)O[C@@H]3COP(=O)(O)O[C@@H]12 [Compound 50, (1S,6R,8R,10S,15R,18R)-8,18-bis(6-amino-9H-purin-9-yl)-3,12-dihydroxy-2,4,7,11,13,16-hexaoxa-3λ^5,12λ^5-diphosphatricyclo[13.3.0.0^6,10]octadecane-3,12-dione] | 9.3 °C | – | –
Nc1nc2c(ncn2[C@@H]2CO[C@@H]3COP(=O)(O)O[C@H]4[C@@H](F)[C@H](n5cnc6c(N)ncnc65)O[C@@H]4COP(=O)(O)O[C@@H]23)c(=O)[nH]1 [Compound 51, (1S,6R,8R,9R,10R,15R,18R)-18-(2-amino-6-oxo-6,9-dihydro-1H-purin-9-yl)-8-(6-amino-9H-purin-9-yl)-9-fluoro-3,12-dihydroxy-2,4,7,11,13,16-hexaoxa-3λ^5,12λ^5-diphosphatricyclo[13.3.0.0^6,10]octadecane-3,12-dione] | 15.8 °C | – | –
Nc1nc2c(ncn2[C@@H]2CO[C@@H]3COP(=O)(O)O[C@H]4[C@H](n5cnc6c(N)ncnc65)CO[C@@H]4COP(=O)(O)O[C@@H]23)c(=O)[nH]1 [Compound 52, (1S,6R,9R,10S,15R,18R)-9-(2-amino-6-oxo-6,9-dihydro-1H-purin-9-yl)-18-(6-amino-9H-purin-9-yl)-3,12-dihydroxy-2,4,7,11,13,16-hexaoxa-3λ^5,12λ^5-diphosphatricyclo[13.3.0.0^6,10]octadecane-3,12-dione] | 10.7 °C | – | –
Nc1nc2c(ncn2[C@@H]2CO[C@@H]3COP(=O)(O)O[C@H]4C[C@H](n5cnc6c(N)ncnc65)O[C@@H]4COP(=O)(O)O[C@@H]23)c(=O)[nH]1 [Compound 53, (1S,6R,8R,10S,15R,18R)-18-(2-amino-6-oxo-6,9-dihydro-1H-purin-9-yl)-8-(6-amino-9H-purin-9-yl)-3,12-dihydroxy-2,4,7,11,13,16-hexaoxa-3λ^5,12λ^5-diphosphatricyclo[13.3.0.0^6,10]octadecane-3,12-dione] | 11.5 °C | – | –
Nc1ncnc2c1ncn2[C@@H]1CO[C@@H]2COP(=O)(S)O[C@H]3[C@@H](F)[C@H](n4cnc5c(N)ncnc54)O[C@@H]3COP(=O)(S)O[C@@H]12 (stereo partly drawn) [Compound 54, (1S,6R,8R,9R,10R,15R,18R)-8,18-bis(6-amino-9H-purin-9-yl)-9-fluoro-3,12-disulfanyl-2,4,7,11,13,16-hexaoxa-3λ^5,12λ^5-diphosphatricyclo[13.3.0.0^6,10]octadecane-3,12-dione] | 17.2 °C | 6.81 | –
Nc1ncnc2c1ncn2[C@@H]1CO[C@@H]2COP(=O)(S)O[C@H]3[C@@H](F)[C@H](n4cnc5c(N)ncnc54)O[C@@H]3COP(=O)(S)O[C@@H]12 (stereo partly drawn) [Compound 55, (1S,6R,8R,9R,10R,15R,18R)-8,18-bis(6-amino-9H-purin-9-yl)-9-fluoro-3,12-disulfanyl-2,4,7,11,13,16-hexaoxa-3λ^5,12λ^5-diphosphatricyclo[13.3.0.0^6,10]octadecane-3,12-dione] | – | 6.47 | 20.0 °C
